Results as given in article PMC11481179, “Development and Application of Reversible and Irreversible Covalent Probes for Human and Mouse Cathepsin‐K Activity Detection, Revealing Nuclear Activity” (Advanced Science, 2024).

Experiments:
[1] = target: T1, endogenous CTSK in intact U-2 OS cells (Homo sapiens, UniProt P43235); test: Labeling of endogenous CTSK in intact cells, fluorescent SDS-PAGE; assay type: cell-based
T1 construct: ability to label endogenous CTSK activity in intact cells; endogenous in cells; host or cells: U-2 OS
T1 sequence (P43235 115-329): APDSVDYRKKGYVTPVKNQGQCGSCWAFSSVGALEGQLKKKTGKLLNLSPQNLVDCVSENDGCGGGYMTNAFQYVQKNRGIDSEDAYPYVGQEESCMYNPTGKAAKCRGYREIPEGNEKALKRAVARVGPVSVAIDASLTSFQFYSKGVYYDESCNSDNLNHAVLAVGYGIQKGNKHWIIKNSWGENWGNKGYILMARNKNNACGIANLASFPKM
Description: To test probe selectivity and the ability to label endogenous CTSK activity in intact cells, three cell lines were selected: human osteosarcoma MG‐63 and U‐2 OS, and human glioblastoma U‐87 MG; all cell lines express CTSK along with other lysosomal cathepsins.^[ [44] ^] First, the ABPs were incubated with intact U‐2 OS cells for different durations of time, and the probe selectivity toward CTSK was examined, with a pan cathepsin ABP, GB123, used as a control that labels CTS B, K, L, and S in cells. After cell lysis, the probe‐labeled enzymes were resolved and detected by a fluorescent scan of the SDS‐PAGE. […] Specifically, intact MG‐63 cells required a 5 h incubation (Figure 2b,c), while U‐87 MG cells required a 2 h incubation (Figure 2d).
Figure 2 Labeling of endogenous CTSK in intact cells. a) U2‐OS cells were treated with DMSO or 5 µM of the indicated inhibitors in culture medium, for 2 h, then with indicated ABPs [5 µM] in a culture medium for indicated times, followed by cell lysis, SDS‐PAGE separation, and fluorescent scanning of the gel at 635/670 nm. An immunoblot of CTSK of the same gel is presented below. b) Intact MG63 cells were treated with GD32 5 µM in the culture media for indicated times, cell lysates were analyzed as in a. CTSK immunoblot is presented, pro and mature CTSK are indicated by arrows. c) MG63 cells and d) U87MG cells were treated with DMSO, or 5 µM of indicated inhibitors in culture medium for 2 h, followed by incubation with 5 µM of indicated probes for 5 h (GD32 and GD42) and 2 h (GB123), cell lysates were analyzed by fluorescent SDS PAGE as in a. […] In (c) a CTSK immunoblot of a representative MG63 lane on the right. e) Labeling of active mature CTSK by GD32 in A549 and U2‐0S cells in externally adjusted different pH. Cells were incubated with 5 µM GD32 for 24 h in growth media at indicated pHs, prior to the cell lysis, cell lysates were analysed as in a. CTSK immunoblot below. f) A549 cells were incubated with increasing concentrations of GD30 for 2 h at pH = 5, followed by the incubation with 5 µM GD32 for 24 h prior to the cell lysis, cell lysates were analyzed as in a. g) Intact U‐87 MG cells or U‐87 MG cell lysates were treated with 5 µM GD32 for 2 h, the intact cells were then lysed and all lysates were analyzed as in (a). h) Intact or lysates of U‐87MG were treated with GD32 for 2 h then immunoprecipitation was done with an anti‐CTSK antibody. Input (I), immunoprecipitation (IP), and output (O) were separated by a 14% SDS‐PAGE and scanned for fluorescence. The gel was then blotted and reacted with an anti‐cystatin B antibody below. ODN (Odanacatib), GB111 (GB111‐NH2), mCTSK (mature CTSK). […]
deoxycholate). After adding sample buffer, samples were boiled for 10 minutes, and analyzed […]
lysates were analyzed as described above. […]

CTSL = CTSL (Homo sapiens, UniProt P07711); test: In vitro kinetic evaluation of cathepsin inhibition, fluorescent substrate Z-RR-AMC; assay type: biochemical; conditions: for mode of inhibition: CTSL; for Ki: CTSL 5 nM, pH 6, 37 °C
Description: used for TLC. Phosphate Buffer Saline (PBS) was purchased from Biological Industries (pH = […]
7.4) and was used as a buffer system in all experiments if not indicated otherwise. […]
Recombinant human CTSB, CTSK, CTSL, and CTSS were supplied by B. Turk (J.
Stefan Institute).[1] […]
In vitro kinetic evaluation of labeling recombinant cathepsins:
Reactions were monitored for 30 min at 37° C in 96-well black flat-bottom microplates […]
(Greiner, Germany) using Tecan INFINITE M1000 pro plate reader (Tecan, Switzerland), […]
substrates Z-RR-AMC (CTSL) or Z-FR-AMC (CTSS, CTSB and CTSK), and excitation and […]
emission wavelengths of 370 and 460 nm, respectively. Cathepsin concentrations in the assay were 0.4 nM (CTSK) or 5 nM (CTSS, CTSB, and CTSL). The buffer was 100 mM Na2HPO4/NaH2PO4, 50 mM NaCl, 5 mM DTT, 0,1% Peg-6000, pH 6. For irreversible inhibitors, reaction data were fitted to the one-phase association formula in GraphPad Prism 9 software: Y=Y0 + (Plateau-Y0)*(1-exp(-K*X)) where in this case Y0 and Y represent fluorescence signal at times 0 and t, respectively, K represent the observed reaction rate kobs and X the inhibitor concentration. Inactivation rates at each inhibitor concentration were obtained by subtracting the inactivation observed in the control sample: kobs – kctrl. The maximal rate of inactivation (kinact) was obtained as the asymptote from equation Y = kinact*X/(Kiapp + X) where X is inhibitor concentration, Y is the observed inactivation rate for each X, and Kiapp is the apparent inhibition constant. Ki values were calculated from IC50 or from Kiapp using formulas Ki = Kiapp / (1 + Km/S) and IC50 = E0/2 + Kiapp, where Km stands for Michalis-Menten constant, S for substrate concentration and E0 for cathepsin concentration.
The highest inhibitor concentrations in the assay were 50 µM. Measurements were performed in several independent duplicates. Average values are presented with standard deviations. […]
µM) were pretreated with different concentrations of probes (GD32, GD36, GD37, or GD42)

Sequence of CTSL (P07711 114-333): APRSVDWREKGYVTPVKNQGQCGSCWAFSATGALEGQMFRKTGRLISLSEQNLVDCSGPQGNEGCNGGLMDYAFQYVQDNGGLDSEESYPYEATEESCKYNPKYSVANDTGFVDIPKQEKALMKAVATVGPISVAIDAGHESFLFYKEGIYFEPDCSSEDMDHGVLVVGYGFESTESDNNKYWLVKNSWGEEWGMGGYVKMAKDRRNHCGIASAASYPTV

| SMILES | effect of inhibitor preincubation on GD32-labeled CTSK band ([1]; inhibitor 5 µM, 2 h, then GD32 5 µM) | mode of inhibition (CTSL) | Ki (CTSL) | CTSK specificity of labeling ([1]; probe 5 µM, incubation up to 24 h) |
| --- | --- | --- | --- | --- |
| C#CCNC(=O)[C@H](CC(C)C)N[C@@H](c1ccc(-c2ccc(S(=O)(=O)CCNC(=O)OC(C)(C)C)cc2)cc1)C(F)(F)F [GD30] | depletion of the CTSK‐specific band | – | – | – |
| C#CCNC(=O)[C@H](CC(C)C)N[C@@H](c1ccc(-c2ccc(S(=O)(=O)CCNC(=O)CCCCC[N+]3=C(/C=C/C=C/C=C4/N(C)c5ccc(S(=O)(=O)O)cc5C4(C)C)C(C)(C)c4cc(S(=O)(=O)O)ccc43)cc2)cc1)C(F)(F)F [GD32] | – | Reversible | 20 µM | retained its CTSK specificity up to 24 h |
| CC(C)C[C@H](N[C@@H](c1ccc(-c2ccc(S(=O)(=O)CCNC(=O)CCCCC[N+]3=C(/C=C/C=C/C=C4/N(C)c5ccc(S(=O)(=O)O)cc5C4(C)C)C(C)(C)c4cc(S(=O)(=O)O)ccc43)cc2)cc1)C(F)(F)F)C(=O)NC1(C#N)CC1 [GD37] | – | Reversible | 1.2 µM | – |
